# Source: PMC5607459, “Discovery of a Potent Inhibitor Class with High Selectivity toward Clostridial Collagenases” (Journal of the American Chemical Society, 2017)
# Entries after “also recorded” stand apart in the source; their conditions may differ. Like-named read-outs stand apart in the source and are kept apart here. Non-standard residues stand in square brackets, D forms with d. Residues, ends and D or L forms follow the SMILES beside them. *: point of attachment. Dnp = O=[N+]([O-])c1ccc(*)c([N+](=O)[O-])c1; Mca = COc1ccc2c(CC(=O)*)cc(=O)oc2c1; Dap = NC[C@H](N)C(=O)O
# Experiments:
# ColH-PD [1] = biological target: T1, ColH-PD (Hathewaya histolytica, UniProt Q46085); experiment: biochemical
# T1 sequence (Q46085 331-721 limits assumed): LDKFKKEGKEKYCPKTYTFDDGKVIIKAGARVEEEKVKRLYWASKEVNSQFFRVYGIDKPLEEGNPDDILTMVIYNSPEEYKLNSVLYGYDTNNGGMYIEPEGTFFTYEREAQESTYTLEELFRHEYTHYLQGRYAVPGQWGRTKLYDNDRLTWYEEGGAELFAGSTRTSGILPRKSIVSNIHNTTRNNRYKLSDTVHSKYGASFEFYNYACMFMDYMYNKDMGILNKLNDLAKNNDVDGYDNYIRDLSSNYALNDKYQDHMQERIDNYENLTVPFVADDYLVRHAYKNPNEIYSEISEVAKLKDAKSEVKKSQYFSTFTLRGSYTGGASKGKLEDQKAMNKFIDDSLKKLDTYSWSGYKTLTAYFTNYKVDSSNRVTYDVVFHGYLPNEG
# ColT-PD = ColT-PD (Clostridium tetani, UniProt Q899Y1); experiment: biochemical; set-up: species or system C. tetani; details: for remaining activity at 100 µM: read-out: residual activity of ColT
# Chain of ColT-PD (Q899Y1 340-731 limits assumed): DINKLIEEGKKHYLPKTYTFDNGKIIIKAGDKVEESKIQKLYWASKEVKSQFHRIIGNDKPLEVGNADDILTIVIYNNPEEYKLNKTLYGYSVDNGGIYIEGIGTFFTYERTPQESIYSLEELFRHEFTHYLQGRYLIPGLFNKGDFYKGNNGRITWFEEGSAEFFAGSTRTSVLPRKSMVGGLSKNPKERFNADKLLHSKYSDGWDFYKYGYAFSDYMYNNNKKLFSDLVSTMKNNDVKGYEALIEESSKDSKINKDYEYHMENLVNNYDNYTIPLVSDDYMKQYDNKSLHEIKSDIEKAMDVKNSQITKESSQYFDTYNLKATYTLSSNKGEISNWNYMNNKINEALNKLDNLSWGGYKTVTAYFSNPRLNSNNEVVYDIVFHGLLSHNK
# ColG-CU = ColG-CU (Hathewaya histolytica, UniProt Q9X721); experiment: biochemical; set-up: species or system C. histolyticum; details: for remaining activity at 100 µM: read-out: residual activity of ColG
# Chain of ColG-CU (Q9X721 111-786): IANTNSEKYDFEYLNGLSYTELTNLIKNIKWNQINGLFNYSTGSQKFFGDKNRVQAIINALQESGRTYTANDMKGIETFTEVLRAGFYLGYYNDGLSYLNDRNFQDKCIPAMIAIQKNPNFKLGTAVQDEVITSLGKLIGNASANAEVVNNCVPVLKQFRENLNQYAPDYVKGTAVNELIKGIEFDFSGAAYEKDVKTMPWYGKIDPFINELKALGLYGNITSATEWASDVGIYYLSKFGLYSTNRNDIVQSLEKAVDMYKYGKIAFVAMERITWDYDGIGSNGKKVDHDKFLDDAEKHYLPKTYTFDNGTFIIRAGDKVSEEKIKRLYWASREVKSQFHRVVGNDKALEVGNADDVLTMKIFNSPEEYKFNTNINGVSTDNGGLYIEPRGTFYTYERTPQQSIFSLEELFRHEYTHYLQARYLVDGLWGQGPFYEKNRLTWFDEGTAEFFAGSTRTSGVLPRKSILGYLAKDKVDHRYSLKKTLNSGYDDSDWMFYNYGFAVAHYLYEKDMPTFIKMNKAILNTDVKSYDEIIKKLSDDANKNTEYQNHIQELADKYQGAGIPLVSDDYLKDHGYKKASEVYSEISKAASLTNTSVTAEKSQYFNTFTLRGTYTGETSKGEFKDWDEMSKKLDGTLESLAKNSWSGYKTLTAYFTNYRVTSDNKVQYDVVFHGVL
# ColQ1-CU = ColQ1-CU (Bacillus cereus, UniProt B9J3S4); experiment: biochemical; set-up: species or system Bacillus cereus strain Q1; details: for remaining activity at 100 µM: read-out: residual activity of ColQ1
# Chain of ColQ1-CU (B9J3S4 94-765 limits assumed): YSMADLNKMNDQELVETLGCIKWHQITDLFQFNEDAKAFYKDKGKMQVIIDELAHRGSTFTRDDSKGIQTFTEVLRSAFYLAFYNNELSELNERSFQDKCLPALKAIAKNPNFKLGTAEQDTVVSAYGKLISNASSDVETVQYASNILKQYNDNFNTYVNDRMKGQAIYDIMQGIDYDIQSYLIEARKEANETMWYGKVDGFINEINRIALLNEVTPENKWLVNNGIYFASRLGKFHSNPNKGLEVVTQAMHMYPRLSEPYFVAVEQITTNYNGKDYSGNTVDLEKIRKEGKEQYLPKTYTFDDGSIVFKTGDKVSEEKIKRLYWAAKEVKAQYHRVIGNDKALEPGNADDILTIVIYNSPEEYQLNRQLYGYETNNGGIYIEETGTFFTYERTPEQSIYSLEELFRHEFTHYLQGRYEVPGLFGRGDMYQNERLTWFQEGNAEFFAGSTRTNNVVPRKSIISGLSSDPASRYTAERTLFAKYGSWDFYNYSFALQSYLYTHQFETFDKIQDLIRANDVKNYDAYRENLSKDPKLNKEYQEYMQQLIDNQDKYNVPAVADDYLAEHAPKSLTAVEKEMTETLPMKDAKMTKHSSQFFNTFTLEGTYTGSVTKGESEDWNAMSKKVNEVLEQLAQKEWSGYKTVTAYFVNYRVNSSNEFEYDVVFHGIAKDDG
# [2] = biological target: T2, catalytic domain of MMP-2 (Homo sapiens, UniProt P08253); experiment: Human MMP inhibition assay, MMP-2; format: biochemical; details: 100 μM compound
# T2 construct: The catalytic domains of MMP-1, -2, -3, -7, -8 and -14; purchased AnaSpec (Fremont, CA, USA)
# T2 sequence (P08253 110-465 limits assumed): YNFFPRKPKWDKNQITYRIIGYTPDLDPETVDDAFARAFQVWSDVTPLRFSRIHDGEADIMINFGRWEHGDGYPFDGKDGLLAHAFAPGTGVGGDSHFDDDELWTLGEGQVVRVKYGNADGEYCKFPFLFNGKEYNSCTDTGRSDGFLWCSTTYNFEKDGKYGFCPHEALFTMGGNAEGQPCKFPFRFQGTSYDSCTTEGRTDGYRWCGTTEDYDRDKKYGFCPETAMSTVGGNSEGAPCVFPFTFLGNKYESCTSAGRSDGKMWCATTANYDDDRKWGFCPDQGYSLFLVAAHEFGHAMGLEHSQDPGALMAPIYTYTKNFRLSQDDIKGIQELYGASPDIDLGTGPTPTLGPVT
# [3] = tested on: MMP-1, -2, -3, -7, -8, and -14; experiment: Human MMP inhibition assay, statements on the whole panel; format: biochemical; details: for inhibition of the tested MMPs: tested at 100 µM
# ColH-PD [4] = biological target: T1, ColH-PD
# ColH-PD [5] = biological target: T1, ColH-PD; experiment: biochemical; format: binding, Clostridium histolyticum
# physchem = details: buffer, pH 7.5
# LasB = format: biochemical, P. aeruginosa
# HEP G2 cells [6] = details: human
# [7] = 10 mM Hepes pH 7.4 (10% methanol) at 22.5°C, experimental time frame
# ColH-PD [8] = biological target: T1, ColH-PD; remark: listed apart in the source
# [9] = biological target: catalytic domain of MMP-7 (Homo sapiens, UniProt P09237); experiment: biochemical
# Chain of catalytic domain of MMP-7 (P09237 95-267): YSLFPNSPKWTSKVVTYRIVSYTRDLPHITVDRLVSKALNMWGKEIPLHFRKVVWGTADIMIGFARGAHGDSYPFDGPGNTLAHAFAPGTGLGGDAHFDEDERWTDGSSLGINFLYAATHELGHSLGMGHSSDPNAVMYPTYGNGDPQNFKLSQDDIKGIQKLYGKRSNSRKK
# HEP G2 cells [10] = experiment: Cytotoxicity assay; details: 48 h
# [11] = biological target: amine-coupled peptidase domain of ColH (ColH-PD) (Hathewaya histolytica, UniProt Q46085)
# Chain of amine-coupled peptidase domain of ColH (ColH-PD) (Q46085 331-721 limits assumed): as the sequence (Q46085 331-721 limits assumed) above
molecule,measurement,setting,value
NC(=O)SCC(=O)Nc1ccccc1 [Compound 1],IC50,ColH-PD [1],25000 ± 6000 nM
Cc1ccc(NC(=O)CSC(N)=O)cc1C [Compound 2],IC50,ColH-PD [1],1900 ± 300 nM
same,inhibition at 40 µM,ColH-PD [1]; read-out: inhibition of ColH-PD,82 ± 3%
CC(=O)c1ccc(NC(=O)CSC(N)=O)cc1 [Compound 3],remaining activity at 100 µM,ColT-PD,≤ 5%
same,remaining activity at 100 µM,ColG-CU,≤ 5%
same,remaining activity at 100 µM,ColQ1-CU,≤ 5%
same,inhibition at 100 µM,[2],25%
same,selectivity for ColH over MMPs,[3],more than 1000 fold
same,inhibition of the tested MMPs,[3],no or negligible inhibition
same,remaining activity at 100 µM,ColH-PD [1]; read-out: residual activity of ColH-PD,< 10%
COC(=O)c1ccc(NC(=O)CSC(N)=O)cc1 [Compound 4],IC50,ColH-PD [1],44 ± 7 nM
COc1ccc(NC(=O)CSC(N)=O)cc1 [Compound 5],IC50,ColH-PD [1],71 ± 9 nM
Cc1ccc(NC(=O)CSC(N)=O)cc1 [Compound 6],decreased IC50 compared to compound 2,ColH-PD [4],16 fold
same,IC50,ColH-PD [1],120 ± 10 nM
NC(=O)SCC(=O)Nc1ccc(Cl)cc1 [Compound 7],remaining activity at 100 µM,ColT-PD,≤ 5%
same,remaining activity at 100 µM,ColG-CU,≤ 5%
same,remaining activity at 100 µM,ColQ1-CU,≤ 5%
same,selectivity for ColH over MMPs,[3],more than 1000 fold
same,inhibition of the tested MMPs,[3],no or negligible inhibition
same,Kd,ColH-PD [5],309 ± 45 nM
same,N (stoichiometry),ColH-PD [5],0.54 ± 0.05
same,ΔG,ColH-PD [5],–8.9 ± 0.1 kcal mol^–1
same,ΔH,ColH-PD [5],–12.7 ± 1.2 kcal mol^–1
same,–TΔS,ColH-PD [5],3.8 ± 1.3 kcal mol^–1
same,decrease in IC50 compared to meta-chloro-substituted counterpart 9,ColH-PD [4],100 fold
same,half-life,physchem,26.8 ± 1.4 min
same,IC50,ColH-PD [1],190 ± 20 nM
CCOc1ccc(NC(=O)CSC(N)=O)cc1 [Compound 8],IC50,ColH-PD [1],190 ± 30 nM
NC(=O)SCC(=O)Nc1cccc(Cl)c1 [Compound 9],IC50,ColH-PD [1],19000 ± 3000 nM
NC(=O)SCC(=O)Nc1cccc(F)c1 [Compound 10],IC50,ColH-PD [1],23000 ± 3000 nM
NC(=O)SCC(=O)Nc1ccccc1Cl [Compound 12],half-life,physchem,20.6 ± 0.9 min
same,IC50,ColH-PD [1],31000 ± 7000 nM
CC(=O)c1ccc(NC(=O)CS)cc1 [Compound 13],selectivity against MMPs,[3],similarly high selectivity against MMPs
same,lower activity toward LasB compared to ColH,LasB,more than 1000 fold
same,reduction of viability (%),HEP G2 cells [6],17 ± 12%
O=C(CS)Nc1ccc(Cl)cc1 [Compound 14],selectivity against MMPs,[3],similarly high selectivity against MMPs
same,Kd,ColH-PD [5],360 ± 38 nM
same,N (stoichiometry),ColH-PD [5],0.48 ± 0.03
same,ΔG,ColH-PD [5],–8.8 ± 0.1 kcal mol^–1
same,ΔH,ColH-PD [5],–15.4 ± 0.3 kcal mol^–1
same,–TΔS,ColH-PD [5],6.6 ± 0.4 kcal mol^–1
same,reduction of viability (%),HEP G2 cells [6],28 ± 12%
same,IC50,ColH-PD [1],210 ± 10 nM
O=C(CS)Nc1ccccc1Cl [Compound 15],IC50,ColH-PD [1],40000 ± 9000 nM
NC(=O)CCC(=O)Nc1ccccc1 [Compound 16],inhibitory activity toward ColH-PD,ColH-PD [4],devoid of any activity; also recorded: no inhibition
CCOc1ccc(NC(=O)CSC(=S)N(CC)CC)cc1 [Compound 17],Inhibition at 100 μM (%),ColH-PD [4],no inhibition
CCN(CC)C(=S)SCC(=O)Nc1ccc(Br)cc1 [Compound 18],Inhibition at 100 μM (%),ColH-PD [4],no inhibition
CCN(CC)C(=S)SCC(=O)Nc1ccc(C(C)C)cc1 [Compound 19],Inhibition at 100 μM (%),ColH-PD [4],no inhibition
CCN(CC)C(=S)SCC(=O)Nc1ccc(F)cc1 [Compound 20],Inhibition at 100 μM (%),ColH-PD [4],no inhibition
CCN(CC)C(=S)SCC(=O)Nc1ccc(C(C)=O)cc1 [Compound 21],hydrolysis to the corresponding free thiol 13,[7],no hydrolysis
same,inhibition at 100 µM,ColH-PD [1]; read-out: Inhibition at 100 μM (%),12 ± 3%
COc1ccc2c(CC(=O)N[C@@H](C)C(=O)NCC(=O)N3CCC[C@H]3C(=O)N3CCC[C@H]3C(=O)NCC(=O)N3CCC[C@H]3C(=O)N[C@@H](CNc3ccc([N+](=O)[O-])cc3[N+](=O)[O-])C(=O)NCC(=O)N[C@@H](CCCNC(=N)N)C(N)=O)cc(=O)oc2c1 [Mca-Ala-Gly-Pro-Pro-Gly-Pro-Dpa-Gly-Arg-NH2] (Mca-AGPPGP[Dap](Dnp)GR-NH2),Km,ColH-PD [8],62 ± 8 µM
"CNC(=O)[C@H](Cc1ccccc1)NC(=O)[C@H](CC(C)C)[C@H](CSc1cccs1)C(=O)NO [batimastat, reference compound]",inhibition of ColT-PD,ColT-PD,inhibited
same,inhibition of ColG-CU,ColG-CU,inhibited
same,inhibition of ColQ1-CU,ColQ1-CU,inhibited
same,IC50,"[3]; MMP-1, -2, -3, -7, -8, -14, read-out: IC50 values for all of these MMPs",< 10 nM
same,inhibition of ColH-PD,ColH-PD [4],inhibited
same,reduction of viability (%),"HEP G2 cells [6]; 48 h, 100 μM",13 ± 7%
same,IC50,[9],7 ± 0.2 nM
COc1cccc2c1C(=O)c1c(O)c3c(c(O)c1C2=O)C[C@@](O)(C(=O)CO)C[C@@H]3O[C@H]1C[C@H](N)[C@H](O)[C@H](C)O1 [doxorubicin],reduction of viability (%),HEP G2 cells [10]; 1 μM,50 ± 5%
CO[C@H]1/C=C/O[C@@]2(C)Oc3c(C)c(O)c4c(O)c(c(/C=N/N5CCN(C)CC5)c(O)c4c3C2=O)NC(=O)/C(C)=C\C=C\[C@H](C)[C@H](O)[C@@H](C)[C@@H](O)[C@@H](C)[C@H](OC(C)=O)[C@@H]1C [rifampicin],reduction of viability (%),HEP G2 cells [10]; 100 μM,29 ± 5%
N-(3-[2-furyl]acryloyl)-L-leucyl-glycyl-L-prolyl-L-alanine [FALGPA],MW-normalized SPR response,[11],35 μ-refractive index units
isoamylphosphonyl-Gly-Pro-Ala [reference compound],inhibition of ColH-PD,ColH-PD [4]; 40 µM,81 ± 1%
